According to patent US7745450B2, “Pyrazolo[4,3-d]pyrimidines, processes for their preparation and methods for therapy” (Institute of Experimental Botany, priority 2002, dated 2010):
Where two headings read alike, the source gives them in different places.

What was measured:
[1] = test system: T-lymphocyte leukemia Molt3 cell line; experiment: Cell proliferation of Molt3, flow cytometric cell count; assay type: cell-based, human; conditions: 96 hours
Experimental: (§1) Cell lines: Human leukemic cell lines were obtained from the American Type Culture Collection (ATCC, Rockville, Md., USA). They were cultured in Iscove's Modified Dulbecco's Medium (IMDM) supplemented with 10% heat inactivated fetal calf serum (FCS), 200 U/ml penicillin, 200 μg/ml streptomycin and 1 μg/ml amphotericin B. Cells were cultured in a 5% CO2-95% air fully humidified incubator. For effects on clonogenic output, 1000 cells/well were plated in duplicate in methylcellulose (0.9%), supplemented with 20% FCS for 14 days.
(§2) Cells were plated at 10000 per well in 200 μl IMDM medium and incubated with 0-50 μM of the novel compounds (Tab 8), by addition of drug directly to the culture medium and incubated at 37° C. for 96 hours (Tab 8). Absolute cell number was determined by addition of a known concentration Fluoresbrite microspheres (FITC) (Polysciences, Inc.). The absolute number of cells/well was calculated as: {(total number of beads added/well)/(number of beads measured)×(number of measured cells in the gate of interest)}. All analyses were performed with a FACScan (BD), using CELLQuest software (Becton Dickinson).
Response of the myeloid leukemia KG1 and T-lymphocyte leukemia Molt3 cell lines to the cytostatic effect of the novel compounds was determined using the above-mentioned standardized bead suspension that was used to determine the absolute cell number by flow cytometric (FCM) measurement. Cells were grown in the presence of increasing concentration of the novel compounds.

[2] = test system: CD34+CD38+ hematopoietic progenitors from adult bone marrow; experiment: Myeloid colony-forming unit (CFU) assay; assay type: cell-based, human; conditions: for IC50: 14 days; for Colony output for CFU-E, CFU-G and CFU-M (output of the different types of myeloid colonies): scored differentially
From the text: Adult Bone Marrow Cells (ABM): Bone marrow samples were obtained by sternal puncture from hematologically normal donors undergoing cardiac surgery, after obtaining informed consent according to the ethical regulations of the University of Antwerp. Cells were collected in IMDM supplemented with 10% FCS and 100 U/ml heparin and separated by density gradient as mentioned for PBMC. After washing, cells were resuspended in IMDM 10% FCS and were sorted on a FACStar (Becton Dickinson, Erembodegem, Belgium). Cell sorting: ABM cells (10^7 cells/ml) were incubated with 43A1 hybridoma supernatant at a 1/10 dilution for 20 minutes at 4° C. The supernatant of the 43A1 hybridoma (immunoglobulin IgG3) was kindly donated by Dr. […] (University of Tübingen, Germany) and was used as a source of anti-CD34 antibodies. After washing twice in IMDM, the cells were incubated with FITC-conjugated rabbit anti-mouse IgG (1/40 dilution) for 20 min at 4° C. […] After washing twice in IMDM, the cells were sorted on a FACStarPlus cell sorter equipped with an water-cooled argon ion laser (INNOVA Enterprise Ion Laser) with multiple wave length outputs including UV (488 nm). Cells with low-to-medium forward and low side scatter, highly positive green (CD34) fluorescence, and an orange (CD38) fluorescence signal lower than the mean fluorescence of cells labeled with an irrelevant isotype-matched control antibody were retained as CD34^+CD38^- cells; cells with an orange fluorescence above this threshold were retained as CD34^+CD38^+ cells. Myeloid Colony-forming unit (CFU) assays: Direct myeloid colony formation of CD34^+CD38^+ cells was assessed in a CFU assay. These assays were initiated with 500 cells per well and plated in duplicate in methylcellulose (0.9%) supplemented with 20% FCS, 1% bovine serum albumin (BSA), 10^-5 M mercaptoethanol and 10 vol. % 5637 conditioned medium of the 5637 bladder carcinoma cell line (containing G-CSF and GM-CSF), 2 U/ml erythropoietin and 30 U/ml interleukine-3 (IL-3). […] The following colony types were scored: myeloid colonies: macrophage (CFU-M), granulocyte (CFU-G), and granulocyte-macrophage (CFU-GM); erythroid colonies (BFU-E (burst-forming units, erythroid) and CFU-E); and mixed erythroid-myeloid colonies (CFU-Mix). CD34^+CD38^+ hematopoietic progenitors (HPC) from adult bone marrow were isolated and investigated for response to novel compounds. CD34^+CD38^+ cells were grown in a methylcellulose system in the presence of increasing concentrations of compounds.

cdk1/cyclin B (CDC2) = cdk1/cyclin B (CDC2) (Homo sapiens, UniProt P06493); experiment: CDK inhibition assay, cdk1/cyclin B (CDC2) kinase, histone phosphorylation; assay type: biochemical; conditions: cell free system (Table 8)
How it was run: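 Radiometric endpoint kinase assay under linear conditions: histone (1 mg/ml) phosphorylated with 15 μM ATP and [γ-32P]ATP in 50 mM HEPES pH 7.4, 10 mM MgCl2, 1 mM DTT. IC50 obtained graphically from dose-response curves of % maximal activity, read by imaging analyzer.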

[3] = test system: PHA-stimulated lymphocytes (PBMC); experiment: Proliferation of PHA-stimulated lymphocytes (PBMC), flow cytometric cell count; assay type: cell-based, human; conditions: 96 hours, IL-2
Experimental: Peripheral blood mononuclear cells (PBMC): Human peripheral blood mononuclear cells were isolated by density gradient (Ficoll-Hypaque) (LSM, ICN Biomedicals Inc.). PBMC were stimulated with 5 μg/ml phytohemaglutinin A (PHA) (Sigma) during 24-48 hours in IMDM supplemented with 10% FCS at 37° C. After washing off the PHA, PBMC were incubated with interleukin-2 (IL-2) (10 U/ml) (Genzyme).
as §2
PHA-stimulated lymphocytes (PBMC) were tested for their cytotoxicity as one of the normal counterparts of the cell lines. Cells were grown for 96 hours in the presence of IL-2 and different concentrations of the novel compounds and cell number was counted on the flow cytometer.

KG1 = experiment: Clonogenic output of KG1 in methylcellulose; assay type: cell-based, human; conditions: 25 μM
Experimental: as §1
Clonogenic output of KG1 was tested in methylcellulose with 25 μM of some of the novel compounds. Colony output vs. control cultures without novel compound, was 16% for 26, 19% for […] and 0% for 201.

[4] = total colony output, read-out: CFU IC50

Chain of cdk1/cyclin B (CDC2) (P06493 whole entry, species assumed): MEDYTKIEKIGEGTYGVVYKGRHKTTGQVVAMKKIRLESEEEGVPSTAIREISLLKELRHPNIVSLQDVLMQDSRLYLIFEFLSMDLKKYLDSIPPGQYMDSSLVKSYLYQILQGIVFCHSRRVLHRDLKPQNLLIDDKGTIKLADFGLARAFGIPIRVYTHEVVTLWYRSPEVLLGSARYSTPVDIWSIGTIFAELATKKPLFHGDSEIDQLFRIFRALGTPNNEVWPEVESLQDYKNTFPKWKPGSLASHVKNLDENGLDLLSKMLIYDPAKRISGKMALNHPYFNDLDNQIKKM
Chain of cdk1/cyclin B (CDC2) (P14635 whole entry partner, species assumed): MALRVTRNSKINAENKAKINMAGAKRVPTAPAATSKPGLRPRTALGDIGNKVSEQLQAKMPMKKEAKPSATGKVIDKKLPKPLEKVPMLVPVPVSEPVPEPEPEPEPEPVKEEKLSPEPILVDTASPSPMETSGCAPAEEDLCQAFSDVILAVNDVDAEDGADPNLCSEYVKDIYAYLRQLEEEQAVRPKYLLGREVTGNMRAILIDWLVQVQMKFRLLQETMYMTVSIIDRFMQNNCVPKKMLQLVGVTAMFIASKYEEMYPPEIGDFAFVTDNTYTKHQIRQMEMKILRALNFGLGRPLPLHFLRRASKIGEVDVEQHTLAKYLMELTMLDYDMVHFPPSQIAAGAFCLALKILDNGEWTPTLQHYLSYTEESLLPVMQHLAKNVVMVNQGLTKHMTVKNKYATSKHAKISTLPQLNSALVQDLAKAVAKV

Row | Molecule | IC50 [1] [µM] | IC50 [2, 4] [µM] | Colony output for CFU-E, CFU-G and CFU-M (output of the different types of myeloid colonies) [2] | IC50 (cdk1/cyclin B (CDC2)) [µM] | IC50 [3] [µM] | IC50 ([1]; Homo sapiens, MOLT-3) [µM] | IC50 ([2]; Homo sapiens, 336 h, methylcellulose, read-out: IC50 on CD34+CD38+ hematopoietic progenitors) [µM] | IC50 ([2]; Homo sapiens, 336 h, total colony output, read-out: CFU IC50) [µM] | Colony output vs. control cultures (KG1) [%] | IC50 ([3]; Homo sapiens, Lymphocyte) [µM]
1 | 5-(3-hydroxypropylamino)-7-[(R,S)-(1-phenyl-2-hydroxyethyl)amino-3-isopropylpyrazolo[4,3-d]pyrimidine [Compound 172] | 8 ± 1.5 | > 20 | significantly lower colony output | > 50 | 4 ± 0.5 |  |  |  |  | 
2 | CCCCCCNc1nc(NC(CO)c2ccccc2)c2[nH]nc(C(C)C)c2n1 (stereo not shown) [Compound 98, 5-(hexylamino)-7-(1-phenyl-2-hydroxyethylamino)-3-isopropylpyrazolo[4,3-d]pyrimidine] |  |  |  | 30 |  | 8 ± 0.4 | > 50 | 5.4 ± 0.4 | 19 | 18 ± 1
3 | 5-(methylthio)-7-[N-(3,4-dihydroxybenzyl-N-methyl]amino-3 isopropylpyrazolo[4,3-d]pyrimidine [Compound 26] | 17 ± 2.9 | > 50 | no significant difference | > 100 | 16.5 ± 0.8 |  |  |  | 16 | 
4 | 5-(3-aminopropylamino)-7-benzylamino-3-isopropylpyrazolo[4,3-d]pyrimidine [Compound 17] | 9.3 ± 0.3 | 17 | significantly lower colony output | 11 | 4 ± 0.2 |  |  |  |  | 
5 | 5-(3-aminoethylamino)-7-(3,4-dihydroxybenzyl)amino-3-isopropylpyrazolo[4,3-d]pyrimidine [Compound 201] | 12 ± 1.8 | 4.5 | significantly lower colony output | 0.5 | 8 ± 2.2 |  |  |  | 0 | 
